In patent US12570994B2, “Plants having increased tolerance to herbicides” (BASF AGRO B.V., priority 2010, dated 2026):
pIC50: −log10 of the molar value.

Tests used:
[1] = molecular target: amino acid substituted PPO enzyme R128A (Amaranthus tuberculatus, UniProt Q0NZW9, R128A); test: biochemical
[2] = molecular target: amino acid substituted PPO enzyme R128L (Amaranthus tuberculatus, UniProt Q0NZW9, R128L); test: biochemical
[3] = molecular target: amino acid substituted PPO enzyme dG210 (Amaranthus tuberculatus, UniProt Q0NZW9, DEL211-211, form not given); format: biochemical
[4] = molecular target: amino acid substituted PPO enzyme L397D (Amaranthus tuberculatus, UniProt Q0NZW9, L397D); test: biochemical
[5] = molecular target: amino acid substituted PPO enzyme L397N (Amaranthus tuberculatus, UniProt Q0NZW9, L397N); test: biochemical
[6] = molecular target: amino acid substituted PPO enzyme F420M (Amaranthus tuberculatus, UniProt Q0NZW9, F420M); test: biochemical
[7] = molecular target: amino acid substituted PPO enzyme F420I (Amaranthus tuberculatus, UniProt Q0NZW9, F420I); test: biochemical
[8] = molecular target: amino acid substituted PPO enzyme F420L (Amaranthus tuberculatus, UniProt Q0NZW9, F420L); test: biochemical
[9] = molecular target: amino acid substituted PPO enzyme F420V (Amaranthus tuberculatus, UniProt Q0NZW9, F420V); test: biochemical
[10] = molecular target: amino acid substituted PPO enzyme R128A, F420M (Amaranthus tuberculatus, UniProt Q0NZW9, F420M/R128A); test: biochemical
[11] = molecular target: amino acid substituted PPO enzyme R128A, F420I (Amaranthus tuberculatus, UniProt Q0NZW9, F420I/R128A); test: biochemical
[12] = molecular target: amino acid substituted PPO enzyme R128A, F420L (Amaranthus tuberculatus, UniProt Q0NZW9, F420L/R128A); test: biochemical

C#CCN1C(=O)C(F)(F)Oc2cc(F)c(-n3c(=O)n(C)c(=S)n(C)c3=O)cc21 [benzoxazinone 1.a.35]
pIC50 [1]: 9.85 | pIC50 [2]: 9.11 | pIC50 [3]: 8.67 | pIC50 [4]: 9.57 | pIC50 [5]: 9.63 | pIC50 [6]: 9.56 | pIC50 [7]: 9.31 | pIC50 [8]: 9.00 | pIC50 [9]: 8.61 | pIC50 [10]: 8.20 | pIC50 [11]: 7.70 | pIC50 [12]: 7.62
